Test [1] relates to ENT CLOACAE multi-drug resistant strains. In words: MIC against multi-drug resistant strains (Table 5). It is filed as cell-based, E. cloacae. The following applies: Enterobacter cloacae, alone, read-out: MIC. How it is done:
(§1) MIC experiments of the antimicrobial agents were determined by a modified broth microdilution method in accordance with the Clinical and Laboratory Standards Institute (CLSI) guidelines using 96 well culture plates. In brief, serial dilutions of all plates were prepared at different concentrations (μg). The inoculum suspension was prepared by adding isolated colonies from a 18-20 hours on TSA plate into phosphate buffer (0.31 mM, pH 7.2) or in water for injection (BBraun) and adjusting the suspension to a turbidity equivalent to 0.5 McFarland Standard. Each well contained a final bacterial concentration of approximately 5×10^5 colony forming units (CFU)/mL. The plate was covered and incubated at 35° C. for 24 hours. […] For the microdilution plates, turbidity in wells can be measured at OD600 using TECAN infinite M200Pro. MIC was determined as […] concentration that gives a 99 percent inhibition.

Test [2] relates to ACBA multi-drug resistant strains. Description: MIC against multi-drug resistant strains (Table 5). It is filed as cell-based, Acinetobacter baumannii. To be noted: Acinetobacter baumannii. How it is done:
as §1

In test [3] the test system is KLPN multi-drug resistant strains. Description: MIC against multi-drug resistant strains (Table 5). The format is cell-based, Klebsiella pneumonia. The following applies: Klebsiella pneumoniae, alone, read-out: MIC. How it is done:
as §1

Another test relates to various pathogens. In words: organism not typed. It is filed as cell-based. How it is done:
The MICs of the individual drugs and LC compound in combinations were determined using the broth microdilution technique as recommended by the CLSI whereby the two anti-microbial agents were added in an equal amount. (e.g.: 50 μL of Colistin: 50 μL of LC compounds). Diluted media containing compounds and antibiotics will be serially diluted 2-fold, and LC compounds and antibiotics alone or in combination will be assayed at fixed synergy concentration. In all cases, the lowest concentration at which no visible growth occurred was be recorded to be the MIC value of individual and combined antibacterial agents. The results were obtained after 24 hours of incubation.
Using the combination of LC100 and colistin, the activity of a broad range of strains was further tested (Table 7).

Test [4] deals with PAE strains (CRE strains, colistin sensitive). In words: MIC of polymyxin B or colistin alone (Table 4). The format is cell-based, P. aeruginosa. On the set-up: unit: μg/mL. How it is done:
as §1

Test [5] relates to EC strains (CRE strains, colistin sensitive). In words: MIC of polymyxin B or colistin alone (Table 4). It is filed as cell-based, E. coli. More on the design: unit: μg/mL. How it is done:
as §1

Converted amounts (≈) assume the structure as drawn. Like-named read-outs stand apart in the source and are kept apart here.

Consider `C[C@@H](O)[C@H]1C(=O)N2C(C(=O)O)=C(SCCN=CN)C[C@H]12` [Imipenem], for which the MIC in test [1] (strain ENT CLOACAE 6780) was > 50 µg/mL; in test [1] (strain ENT CLOACAE 21489), > 50 µg/mL; in test [1] (strain ENT CLOACAE 30063), > 50 µg/mL; in test [1] (strain ENT CLOACAE 44095) it was > 50 µg/mL; in test [2], 12.5 µg/mL (≈ 41.8 µM); in test [2] (ATCC19606, strain ACBA ATCC 19606, alone, read-out: MIC) it was 25 µg/mL (≈ 83.5 µM). Also, the MIC in test [2] (strain ACBA 1012, alone, read-out: MIC) is > 50 µg/mL; in test [2] (strain ACBA 43357, alone, read-out: MIC) it was > 50 µg/mL; in test [3] (strain KLPN 8852) it was > 50 µg/mL; in test [3] (strain KLPN 15588), > 50 µg/mL; in test [3] (strain KLPN 24076), > 50 µg/mL; in test [3] (strain KLPN 27025), > 50 µg/mL. For the same compound, the MIC in the test with various pathogens (ACBA 1010 (CI)) was 25 µg/mL; with various pathogens (ACBA ATCC 19606), 25 µg/mL; in the test on various pathogens (ACBA DR 43357) it was > 50 µg/mL; in the test with various pathogens (Escherichia coli, 6083655967 [MCR 1+, E. Coli]), 0.0975 µg/mL; with various pathogens (Escherichia coli, 6093560257 [MCR 1+, E. Coli, NDM-1]) it was 12.5 µg/mL; in the test on various pathogens (Escherichia coli, 6123520276 [MCR 1+, E. Coli]), < 0.0975 µg/mL. In addition, the MIC with various pathogens (Escherichia coli, 7023436560 [MCR 1+, E. Coli]) is < 0.0975 µg/mL; in the test with various pathogens (Escherichia coli, 7023444207 [MCR 1+, E. Coli]), 0.0975 µg/mL; in the test on various pathogens (Escherichia coli, 7023446108 [MCR 1−, E. Coli]), 0.0975 µg/mL; in the test on various pathogens (Escherichia coli, 7033607097 [MCR 1−, E. Coli]), 0.195 µg/mL; in the test with various pathogens (Escherichia coli, 7103531927 [MCR 1+, E. Coli, KPC+]) it was 6.25 µg/mL; in the test on various pathogens (Escherichia coli, 7113636863 [MCR 1+, E. Coli, NDM-1]), 12.5 µg/mL. The MIC was > 50 µg/mL with various pathogens (KLPN CRE 15588); > 50 µg/mL in the test on various pathogens (KLPN CRE 27025); 3.12 µg/mL in the test on various pathogens (PAE DM 4150); 0.78 µg/mL in the test with various pathogens (PAE DM 23155); 0.78 µg/mL with various pathogens (PAE DM 23257); 1.56 µg/mL with various pathogens (PAE DM 23376). For the same compound, the results for the MIC with various pathogens (PAE DR 4877), with various pathogens (PAE DR 5790) and in the test on various pathogens (PAE DU 14476) were 1.56 µg/mL, 6.25 µg/mL and > 25 µg/mL, respectively.

Take Polymyxin B: the “MIC (antibiotic alone)” value stood at 1.56 in test [4] (strain PAE 4877); 1.56 in test [4] (strain PAE 5790); 1.56 in test [4] (strain PAE 14476); 0.195 in test [5] (strain EC 17232); 0.78 in test [5] (strain EC 17528); 1.56 in test [5] (strain EC 19963).

The record behind these values is patent publication US12473250B2, “Molecular design of new antibiotics and antibiotic adjuvants against MCR strains” (priority 2019, dated 2025).
